This is an account of results in patent US11866518B2, “Bicyclic peptide ligands specific for TSLP” (BicycleTx Limited, priority 2020, dated 2024).

*1 amine or outer side, *2 acyl side, *3 side chain or, on linkers, in order; H or OH if unused. Where a SMILES comes first, the peptide text is derived from it. Bridges are numbered along the chain shown (N, C = ends). TATA = O=C(CC[*:1])N1CN(C(=O)CC[*:2])CN(C(=O)CC[*:3])C1

By inhibition is commonly meant how much of the control response was suppressed. For orientation: Kd means the constant that tells how readily two partners part at equilibrium.

For the first assay, the target named is T1, TSLP (Homo sapiens, UniProt Q969D9). The experiment in a line: Human peripheral blood mononuclear cell assay (TSLP-induced CCL17/TARC). On the set-up: host or cells: added to human PBMCs from healthy donors. The assay is classed as cell-based. The settings on record: human PBMCs; 10 μM peptide; 50 pM TSLP; 24 hours; read-out: CCL17 % Inhibition @ 10 μM, 50 pM TSLP. The method, then: Human peripheral blood mononuclear cells (PMBCs) were obtained from heparinized whole blood (healthy donors) by density gradient centrifugation using Lymphoprep (StemCell Technologies, Vancouver, BC) according to the manufacturers instructions. The PBMCs were washed twice with PBS containing 2 mM EDTA and 2% fetal calf serum (FCS) and reconstituted in RPMI containing 10% FCS and 2% PenStrep at a final concentration of 3 million cells/mL. This cell suspension (100 μL) was aliquoted into the wells of a 96-well flat bottom tissue culture plate. 5 μL of bicycle peptide or vehicle (0.1% DMSO in complete medium) was then added and mixed with 5 μL of TSLPvehicle (complete medium). […] The plate was incubated for 30 minutes are rt. 10 μL of this mixture was added to cells and the plate was incubated for 24 hours in a 10% CO2, humidified incubator at 37° C. The plate was centrifuged at 300×g for 5 min and the collected supernatants frozen at −20° C. for subsequent CCL17/TARC analysis.
T1 sequence (Q969D9 29-159): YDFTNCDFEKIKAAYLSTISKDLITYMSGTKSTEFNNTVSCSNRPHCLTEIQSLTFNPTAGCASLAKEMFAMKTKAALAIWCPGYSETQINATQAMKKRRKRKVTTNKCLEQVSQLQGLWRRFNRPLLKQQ
CCL17/TARC was determined by MSD (MesoScale Discovery, Maryland, USA) according to the manufacturer's instructions.
For `CC(=O)N[C@H]1CSCCC(=O)N2CN3CN(C2)C(=O)CCSC[C@H](NC(=O)[C@H](CC(=O)O)NC(=O)[C@H](CCC(=O)O)NC(=O)[C@H](CC(C)C)NC(=O)[C@H](Cc2c[nH]c4ccccc24)NC(=O)[C@H](CCC(N)=O)NC1=O)C(=O)N[C@@H](Cc1c[nH]c2ccccc12)C(=O)N[C@@H](CCCNC(=N)N)C(=O)NCC(=O)N[C@@H](Cc1ccc(F)cc1)C(=O)N[C@H](C(N)=O)CSCCC3=O` [Example 17, Ac-(SEQ ID NO: 15)], the inhibition at 10 µM amounted to 1%.

For the compound `CC(=O)N[C@H]1CSCCC(=O)N2CN3CN(C2)C(=O)CCSC[C@H](NC(=O)[C@H](CC(=O)O)NC(=O)[C@H](CCC(=O)O)NC(=O)[C@H](CC(C)C)NC(=O)[C@H](Cc2c[nH]c4ccccc24)NC(=O)[C@H](CCC(N)=O)NC1=O)C(=O)N[C@@H](Cc1c[nH]c2ccccc12)C(=O)N[C@@H](CCCNC(=N)N)C(=O)NCC(=O)N[C@@H](Cc1ccc(F)c(F)c1)C(=O)N[C@H](C(N)=O)CSCCC3=O` [Example 22, Ac-(SEQ ID NO: 20)], the inhibition at 10 µM came to 41%.

The assay is the same for the next values; noted with them: read-out: CCL17 % Inhibition @ 10 μM, […] TSLP.
Consider `CC(=O)N[C@H]1CSCCC(=O)N2CN3CN(C2)C(=O)CCSC[C@H](NC(=O)[C@H](CC(=O)O)NC(=O)[C@H](CCC(=O)O)NC(=O)[C@H](CC(C)C)NC(=O)[C@H](Cc2c[nH]c4ccccc24)NC(=O)[C@H](CCC(N)=O)NC1=O)C(=O)N[C@@H](Cc1c[nH]c2ccccc12)C(=O)N[C@@H](CCCNC(=N)N)C(=O)NCC(=O)N[C@@H](Cc1ccc(Cl)cc1)C(=O)N[C@H](C(N)=O)CSCCC3=O` [Example 14, Ac-(SEQ ID NO: 12)], for which the inhibition at 10 µM is 14%.

A further assay addresses T1, TSLP. Put plainly: Human TSLP Surface Plasmon Resonance (SPR) binding assay. Further details: The resulting construct spCD33-6×HN-TEV-hTSLP(29-159)-Avi; 6xHN tag with TEV site (N, cleaved yes); made in house; host or cells: Expi293F cells. The settings on record: biotinylated human TSLP immobilized on streptavidin chip; 20° C.; steady-state or kinetic 1:1 fit; read-out: hTSLP SPR Kd.
On to `CSCC[C@H](NC(=O)[C@H](CCC(=O)O)NC(=O)[C@H](CC(N)=O)NC(=O)[C@H](CC(=O)O)NC(=O)[C@H](Cc1ccc(O)cc1)NC(=O)[C@@H]1CSCCC(=O)N2CN3CN(C2)C(=O)CCSC[C@H](N)C(=O)N[C@@H](CC(=O)O)C(=O)N[C@@H](Cc2c[nH]c4ccccc24)C(=O)N[C@@H](Cc2c[nH]cn2)C(=O)N[C@@H](Cc2c[nH]c4ccccc24)C(=O)N[C@@H](CCC(=O)O)C(=O)N[C@@H](Cc2ccc(O)cc2)C(=O)N[C@@H](CC(=O)O)C(=O)N[C@@H](CSCCC3=O)C(=O)N[C@@H](Cc2c[nH]c3ccccc23)C(=O)N[C@@H](CC(C)C)C(=O)N[C@@H](CO)C(=O)N1)C(=O)N[C@@H](CO)C(N)=O` [Example 223, (SEQ ID NO: 144)-YDNEMS], for which the Kd came out at 3000 nM.

`CC(C)C[C@@H]1NC(=O)[C@H](Cc2c[nH]c3ccccc23)NC(=O)[C@@H]2CSCCC(=O)N3CN(CN(C3)C(=O)CCSC[C@H](N)C(=O)N[C@@H](CC(=O)O)C(=O)N[C@@H](Cc3c[nH]c4ccccc34)C(=O)N[C@@H](Cc3c[nH]cn3)C(=O)N[C@@H](Cc3c[nH]c4ccccc34)C(=O)N[C@@H](CCC(=O)O)C(=O)N[C@@H](Cc3ccc(O)cc3)C(=O)N[C@@H](CC(=O)O)C(=O)N2)C(=O)CCSC[C@@H](C(=O)N[C@@H](C)C(=O)N[C@@H](CC(N)=O)C(=O)N[C@@H](CO)C(=O)N[C@@H](CCC(=O)O)C(=O)N[C@@H](Cc2ccccc2)C(=O)N[C@@H](CCC(=O)O)C(N)=O)NC(=O)[C@H](CO)NC1=O` [Example 227, (SEQ ID NO: 144)-ANSEFE]: the Kd is 740 nM.

Turning to `CC(C)C[C@@H]1NC(=O)[C@H](Cc2c[nH]c3ccccc23)NC(=O)[C@@H]2CSCCC(=O)N3CN(CN(C3)C(=O)CCSC[C@H](N)C(=O)N[C@@H](CC(=O)O)C(=O)N[C@@H](Cc3c[nH]c4ccccc34)C(=O)N[C@@H](Cc3c[nH]cn3)C(=O)N[C@@H](Cc3c[nH]c4ccccc34)C(=O)N[C@@H](CCC(=O)O)C(=O)N[C@@H](Cc3ccc(O)cc3)C(=O)N[C@@H](CC(=O)O)C(=O)N2)C(=O)CCSC[C@@H](C(=O)NCC(=O)N[C@@H](C)C(=O)NCC(=O)N[C@@H](CCC(=O)O)C(=O)N[C@@H](CO)C(=O)N[C@@H](CO)C(N)=O)NC(=O)[C@H](CO)NC1=O` [Example 228, (SEQ ID NO: 144)-GAGESS], the Kd is 2300 nM.

As to `CC(C)C[C@@H]1NC(=O)[C@H](CO)NC(=O)[C@@H](NC(=O)[C@H](C)N)CSCCC(=O)N2CN3CN(C2)C(=O)CCSC[C@@H](C(=O)N[C@@H](C)C(N)=O)NC(=O)[C@H]([C@@H](C)O)NC(=O)[C@H](Cc2c[nH]c4ccccc24)NC(=O)[C@H](Cc2c[nH]c4ccccc24)NC(=O)[C@H](CC(N)=O)NC(=O)[C@H](Cc2c[nH]cn2)NC(=O)[C@H](CSCCC3=O)NC(=O)[C@H](CO)NC(=O)[C@H](Cc2c[nH]c3ccccc23)NC(=O)[C@@H]2CCCN2C(=O)[C@H](CC(=O)O)NC1=O` [Example 229, A-(SEQ ID NO: 156)-A] (H-ACSLDPWSCHNWWTCA-NH2; linker 2-9-15 via TATA; N-terminus and C-terminus assumed), the Kd is 9900 nM.

`CC(C)C[C@@H]1NC(=O)[C@H](C)NC(=O)[C@@H](NC(=O)[C@H](C)N)CSCCC(=O)N2CN3CN(C2)C(=O)CCSC[C@H](NC(=O)[C@H](C(C)C)NC(=O)[C@H](Cc2c[nH]c4ccccc24)NC(=O)[C@@H]2CCCN2C(=O)[C@H](CC(=O)O)NC1=O)C(=O)N1CCC[C@H]1C(=O)N[C@@H](CCC(N)=O)C(=O)N[C@@H](Cc1c[nH]c2ccccc12)C(=O)N[C@@H](Cc1c[nH]c2ccccc12)C(=O)N[C@@H](CC(=O)O)C(=O)N[C@H](C(=O)N[C@@H](C)C(N)=O)CSCCC3=O` [Example 230, A-(SEQ ID NO: 157)-A] (H-ACALDPWVCPQWWDCA-NH2; linker 2-9-15 via TATA; N-terminus and C-terminus assumed): the Kd was found to be 960 nM.

With `CC(C)C[C@@H]1NC(=O)[C@@H]2CSCCC(=O)N3CN(CN(C3)C(=O)CCSC[C@@H](C(=O)N[C@@H](C)C(N)=O)NC(=O)[C@H](CCC(=O)O)NC(=O)[C@@H]3CCCN3C(=O)[C@H](CCC(N)=O)NC(=O)[C@H](Cc3ccc(O)cc3)NC(=O)[C@H](CC(C)C)NC1=O)C(=O)CCSC[C@H](NC(=O)[C@H](C)N)C(=O)N[C@@H](CCC(N)=O)C(=O)N[C@@H](CCC(=O)O)C(=O)N[C@@H](Cc1c[nH]cn1)C(=O)N[C@@H](CC(=O)O)C(=O)N[C@@H](Cc1c[nH]c3ccccc13)C(=O)N[C@@H](Cc1ccc(O)cc1)C(=O)N2` [Example 231, A-(SEQ ID NO: 158)-A] (H-ACQEHDWYCLLYQPECA-NH2; linker 2-9-16 via TATA; N-terminus and C-terminus assumed), the Kd was 1800 nM.

Take `CC[C@H](C)[C@@H]1NC(=O)[C@H](Cc2c[nH]c3ccccc23)NC(=O)[C@@H]2CSCCC(=O)N3CN(CN(C3)C(=O)CCSC[C@@H](C(=O)N[C@@H](C)C(N)=O)NC(=O)[C@H](CC(C)C)NC(=O)[C@H]([C@@H](C)O)NC(=O)[C@H](CCCCN)NC(=O)[C@H](Cc3ccccc3)NC1=O)C(=O)CCSC[C@H](NC(=O)[C@H](C)N)C(=O)N[C@@H](CC(=O)O)C(=O)N[C@@H](CCC(=O)O)C(=O)N[C@@H](CC(C)C)C(=O)N[C@@H](CC(=O)O)C(=O)N[C@@H]([C@@H](C)CC)C(=O)N1CCC[C@H]1C(=O)N2` [Example 232, A-(SEQ ID NO: 159)-A] (H-ACDELDIPCWIFKTLCA-NH2; linker 2-9-16 via TATA; N-terminus and C-terminus assumed): the Kd came out at 8300 nM.

`CC(=O)N[C@H]1CSCCC(=O)N2CN3CN(C2)C(=O)CCSC[C@@H]2NC(=O)[C@H](CC(=O)O)NC(=O)[C@H](CCC(=O)O)NC(=O)[C@H](CC(C)C)NC(=O)[C@H](CCn4cc(nn4)CC[C@H](NC(=O)[C@H](Cc4c[nH]c5ccccc45)NC2=O)C(=O)NCC(=O)N[C@@H](Cc2ccc(F)cc2)C(=O)N[C@H](C(N)=O)CSCCC3=O)NC(=O)[C@H](CCC(N)=O)NC1=O` [Example 249]: the Kd was 1200 nM.
